Source: patent US12037419B2 (The Feinstein Institutes for Medical Research, priority 2016, dated 2024)

Key:
[1] = molecular target: T1, RAGE (Homo sapiens, UniProt Q15109); test: SPR assay of C1q and RAGE binding; conditions: read-out: KD of C1q and RAGE binding, 25° C., 1:1 binding ratio supposed
T1 construct: purchased R&D Systems
Protocol: Surface Plasmon Resonance analysis (SPR): For real-time binding interaction studies, a BIAcore T200 instrument (GE Healthcare) was used. […] A 1:1 mixture of N-hydroxysuccinimide and N-ethyl-N-(dimethyaminopropyl) carbodiimide was used to activate 2 flow-cells of the CMS chip. […] The analytes were diluted in 1×PBS+0.01% (vol/vol) tween-20 buffer. The analytes were sequentially injected at a flow rate of 30 μl/min for 60 s at 25° C. The KD was dertermined using the BIAcore evaluation software 2.0 (GE Healthcare) supposing a 1:1 binding ratio.

[2] = test system: human monocytes; test: HMGB1-induced monocyte activation (cytokine mRNA by q-PCR, protein by ELISA/MSD); type: cell-based
Protocol: (§1) Monocyte isolation and stimulation: Human PBMCs were obtained following institutional guidelines of the Feinstein Institute for Medical Research (Feinstein) and isolated from blood of healthy donors by density centrifugation (New York Blood Bank). Monocytes were negatively enriched using a human monocyte enrichment kit (Stem Cell Technology). Purity of monocytes (≥90% CD11b+CD14+LAIR-1+) was determined by flow cytometry. […] Splenic murine monocytes from wild type mice, RAGE deficient or LAIR-1 conditional knockout mice were isolated using EasySep mouse monocyte enrichment kit (Stem Cell Technology). C57BL/6 mice, Lysozyme2-Cre transgenic mice were purchased from Jackson Laboratory. Myeloid specific LAIR-1 conditional knockout mice (Lysozyme2-Cre×LAIR fl/fl) were bred and maintained in our facility (Feinstein) under specific pathogen-free conditions. RAGE deficient mice (Department of Medicine, Karolinska Institute Stockholm, Sweden) were maintained at Feinstein. Eight-to ten weeks old male mice were used for experiments. All animal procedures were approved by the Feinstein Institutional Animal Care and Use Committee.
RT-PCR analysis and primers: Total RNA was extracted from cells (1-2×10^6 cells per sample) with an RNeasy kit (Qiagen, Venlo, Limburg, Netherlands) and cDNA was generated using an iScript cDNA synthesis kit (Bio-Rad laboratories). Real Time-PCR was performed on a Light Cycler 480 II (Roche) using Light Cycler 480 master mix with primers (Applied Biosystems) for IFNα1 (Hs00256882), IFNα7 (mm02525960), MX1 (Hs00182073, mm01217998), IL-6 (Hs00985639, mm99999064), TNFα (Hs00174128, mm00443258), IL-12a (Hs00168405), Mer (Hs01031973), PDL-1 (Hs01125301), IL-10 (Hs00961622), CD163 (Hs00174705), HPRT1 (Hs99999909, mm01545399) and Polr2a (Hs00172187). The genes of interest were normalized to the expression of house keeping genes and were compared to a control condition with no treatment. The relative induction was calculated by 2-ΔΔCt.
Transfection: For RNA interference assays, human monocytes were transfected using an Amaxa Nucleofector kit (Lonza) with a greater than 40% transfection efficiency. siRNAs were obtained from Qiagen. The target sequence of human LAIR1-11 is […] (SEQ ID NO:9). The efficiency of knockdown was determined by flow cytometry and q-PCR.
(§2) Cytokine analysis: Cytokine levels were measured using a Human Proinflammatory 7-plex assay following the manufacturer's protocols (Meso Scale Discovery (MSD). MSD plates were analyzed on the MS2400 imager (MSD). All standards and samples were run in duplicates.

[3] = test system: human monocytes; test: Induction of anti-inflammatory molecules / M2-like phenotype (Mer, PDL-1, IL-10, CD163) in monocytes; type: cell-based
Protocol: as §1
RT-PCR analysis and primers: Total RNA was extracted from cells (1-2×10^6 cells per sample) with an RNeasy kit (Qiagen, Venlo, Limburg, Netherlands) and cDNA was generated using an iScript cDNA synthesis kit (Bio-Rad laboratories). […] The relative induction was calculated by 2-ΔΔCt.
as §2
Flow cytometry: Cells were suspended in staining buffer containing 2% BSA and incubated with Fc block (Miltenyi Biotec) for 15 min on ice. […] Events were acquired using either an LSRII or Fortessa cell analyzer (BD Biosciences), and data were analyzed using FlowJo (Tree star).

[4] = C1q 25 μg/ml, HMGB1 3 μg/ml, 6 h

T1 sequence (Q15109 23-342 limits assumed): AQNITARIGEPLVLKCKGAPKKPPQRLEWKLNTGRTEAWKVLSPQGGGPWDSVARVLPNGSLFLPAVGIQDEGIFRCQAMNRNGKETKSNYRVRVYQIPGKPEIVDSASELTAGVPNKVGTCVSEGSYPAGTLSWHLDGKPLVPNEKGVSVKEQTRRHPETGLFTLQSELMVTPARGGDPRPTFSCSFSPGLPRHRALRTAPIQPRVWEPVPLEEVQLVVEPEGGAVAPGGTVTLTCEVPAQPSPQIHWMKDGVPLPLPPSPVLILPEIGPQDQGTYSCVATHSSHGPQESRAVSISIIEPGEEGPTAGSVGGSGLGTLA

C1q: C1q purified from pooled normal human sera, obtained from Complement Technology
Kd [1]: 855 nM | HMGB1-induced IFN, IL-6 and TNFα in adherent cell fraction of PBMCs [2, 4]: inhibited this HMGB1-mediated activation | HMGB1-mediated cytokine induction in monocytes treated with LAIR-1-specific siRNA [2, 4]: no effect | HMGB1-induced monocyte activation in the presence of soluble decoy receptor LAIR-2 ([2]; C1q 25 μg/ml, LAIR-2 20 μg/ml, HMGB1 3 μg/ml, 6 h): failed to inhibit monocyte activation | transcription of cytokine genes in the absence of HMGB1 ([2]; C1q alone, serum free medium): did not alter transcription | monocyte activation by HMGB1, C1q levels commonly present in SLE patients ([2]; C1q ˜25-50 μg/ml): less inhibitory | HMGB1-mediated cytokine transcription and protein induction ([2]; HMGB1 3 μg/ml, various C1q concentrations, serum free medium, 6 h mRNA, 24 h protein): counteracted the HMGB1-mediated cytokine transcription and protein induction in a dose-dependent manner | inhibitory effect of C1q at increased HMGB1 level ([2]; HMGB1 10 μg ml-1): abrogated the inhibitory effect of C1q | monocyte activation by HMGB1, physiologic levels of C1q ([2]; physiologic C1q levels): effectively blocked monocyte activation | potency of physiologic C1q levels versus SLE levels (25-50 μg/ml) for Mer, PDL-1, IL-10, CD163 mRNA ([3]; C1q 10, 25, 50 or 75 μg/ml with HMGB1, 24 h): more potent | transcription and protein expression of anti-inflammatory factors (Mer, PDL-1, IL-10, CD163) ([3]; together with HMGB1 3 μg/ml, C1q 25 μg/ml or C1q tail 53 μg/ml, 24 h): induced the transcription and protein expression of a variety of anti-inflammatory factors
